Experimental data: the supplement of paper PMC4862054

How the values were obtained:
Conditions in all cases: incubation time: 72 h
BT-474 = assay: drug sensitivity score (DSS), CellTiter-Blue viability (DSS (AUC-based score)); higher = stronger viability inhibition; extreme values may be limits of the assay
Description: (§1)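 DSRT with the CellTiter-Blue (resazurin reduction) viability readout, fluorescence 560/590 nm, 72 h incubation. Plates were normalised to DMSO and benzethonium chloride controls. DSS is computed from the area under the fitted dose-response curve (5 or 9 concentrations).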

BT-549 = assay: as above
Description: as §1

CAL-120 [1] = assay: as above
Description: as §1

CAL-148 = assay: as above
Description: as §1

CAL-51 = assay: as above
Description: as §1

CAL-85-1 [2] = assay: as above
Description: as §1

DU-4475 = assay: as above
Description: as §1

HCC1143 = assay: as above
Description: as §1

HCC1599 = assay: as above
Description: as §1

HCC1937 = assay: as above
Description: as §1

HDQ-P1 [3] = assay: as above
Description: as §1

Hs578T [4] = assay: as above
Description: as §1

MDA-MB-231 [5] = assay: as above
Description: as §1

MDA-MB-436 [6] = assay: as above
Description: as §1

MDA-MB-453 [7] = assay: as above
Description: as §1

MDA-MB-468 [8] = assay: as above
Description: as §1

MFM-223 = assay: as above
Description: as §1

SK-BR-3 = assay: as above
Description: as §1

CAL-120 [9] = assay: drug sensitivity score (DSS), CellTox Green (DSS (AUC-based score)); higher = stronger drug effect (viability inhibition or cytotoxicity); extreme values may be limits of the assay
How it was run: (§2)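 The area under the fitted dose-response curve was used to calculate the drug sensitivity score. Cells from breast cancer lines were incubated for 72 h in 384-well plates with compound at 5 concentrations spaced 10-fold over a 10,000-fold range specific to each compound. Plates were read for CellTox Green and then CellTiter-Glo, and normalised to 0.1 % DMSO and a positive kill control.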

CAL-85-1 [10] = assay: as above
How it was run: as §2

HDQ-P1 [11] = assay: as above
How it was run: as §2

Hs578T [12] = assay: as above
How it was run: as §2

MDA-MB-231 [13] = assay: as above
How it was run: as §2

MDA-MB-436 [14] = assay: as above
How it was run: as §2

MDA-MB-453 [15] = assay: as above
How it was run: as §2

MDA-MB-468 [16] = assay: as above
How it was run: as §2

| Compound | drug sensitivity score (BT-474) | drug sensitivity score (BT-549) | drug sensitivity score (CAL-120 [1]) | drug sensitivity score (CAL-148) | drug sensitivity score (CAL-51) | drug sensitivity score (CAL-85-1 [2]) | drug sensitivity score (DU-4475) | drug sensitivity score (HCC1143) | drug sensitivity score (HCC1599) | drug sensitivity score (HCC1937) | drug sensitivity score (HDQ-P1 [3]) | drug sensitivity score (Hs578T [4]) | drug sensitivity score (MDA-MB-231 [5]) | drug sensitivity score (MDA-MB-436 [6]) | drug sensitivity score (MDA-MB-453 [7]) | drug sensitivity score (MDA-MB-468 [8]) | drug sensitivity score (MFM-223) | drug sensitivity score (SK-BR-3) | drug sensitivity score (CAL-120 [9]) | drug sensitivity score (CAL-85-1 [10]) | drug sensitivity score (HDQ-P1 [11]) | drug sensitivity score (Hs578T [12]) | drug sensitivity score (MDA-MB-231 [13]) | drug sensitivity score (MDA-MB-436 [14]) | drug sensitivity score (MDA-MB-453 [15]) | drug sensitivity score (MDA-MB-468 [16]) |
| --- | --- | --- | --- | --- | --- | --- | --- | --- | --- | --- | --- | --- | --- | --- | --- | --- | --- | --- | --- | --- | --- | --- | --- | --- | --- | --- |
| CC(C)C[C@H](NC(=O)[C@@H](COC(C)(C)C)NC(=O)[C@H](Cc1ccc(O)cc1)NC(=O)[C@H](CO)NC(=O)[C@H](Cc1c[nH]c2ccccc12)NC(=O)[C@H](Cc1cnc[nH]1)NC(=O)[C@@H]1CCC(=O)N1)C(=O)N[C@@H](CCCNC(=N)N)C(=O)N1CCC[C@H]1C(=O)NNC(N)=O [Goserelin] | 0 | 0 | 0 | 0 | 0 | 0 | 0 | 0 | 0 | 0 | 0 | 0 | 0 | 0 | 0 | 0 | 0 | 0 | 0 | 0 | 0.917 | 1.59 | 0 | 0 | 0 | 0 |
| COc1ccc(S(=O)(=O)Nc2cccnc2Nc2ccc(O)cc2)cc1 [ABT-751] | 7 | 6.81 | 14.5 | 10.7 | 11.8 | 13.7 | 10.1 | 9.7 | 5.55 | 14.9 | 12 | 17.3 | 14.3 | 10.4 | 17.9 | 8.8 | 8.15 | 18.5 | 0.145 | 12 | 0 | 7.06 | 8.51 | 9.27 | 0 | 4.39 |
| C/C(=C\c1csc(C)n1)[C@@H]1C[C@@H]2O[C@]2(C)CCC[C@H](C)[C@H](O)[C@@H](C)C(=O)C(C)(C)[C@@H](O)CC(=O)N1 [Ixabepilone] | 2.15 | 3.35 | 0.647 | 2.58 | 0.607 | 2.08 | 2.31 | 1.78 | 1.1 | 5.41 | 0 | 2.45 | 10.5 | 4.17 | 3.24 | 3.09 | 2.45 | 3.73 | 0 | 4.02 | 0 | 0 | 0.915 | 0 | 0 | 1.3 |
